Key:
TLR1/2 signaling = assay: TNFα mRNA in BMDM stimulated with Pam3C; assay type: cell-based, mouse; settings: peptide 40 μM; P3C 0.33 μM; 1 h
Description: (§1) The cDNA obtained was amplified with gene-specific primers for mouse HPRT, TNFα, IL-10, IL-12-p40, or IL-6 and Fast SYBR Green™ master mix (Applied Biosystemsm) as previously described.
(§2) CPDPs 9R34 and 9R11 were examined for inhibition of TLR1/2, TLR4, and TLR7 signaling. BMDMs were stimulated with Pam3C, E. coli LPS, or R848 and TNFαmRNA was measured 1 hour after stimulation. Mouse BMDM were treated with 40 μM of the indicated peptides for 30 minutes prior to stimulation with ODN 1668 (1 μM), E. coli LPS (0.1 μg/mL), R848 (2.85 μM), or P3C (0.33 μM). R848 and P3C were used to specifically activate TLR7 and TLR2 signaling, respectively. TNFαmRNA expression was measured 1 h after ODN 1668 challenge and normalized to the expression of HPRT. See results in FIG. 8A, FIG. 8B, and FIG. 8C. […] The statistical significance of changes was determined by a one-way ANOVA test; *p<0.01.

TLR7 signaling = assay: TNFα mRNA in BMDM stimulated with R848; assay type: cell-based, mouse; settings: peptide 40 μM; R848 2.85 μM; 1 h
Description: as §1, §2

myDDosome = settings: BMDM pretreated with CPDP; MyD88 IP, IRAK4 blot
Description: Four million BMDMs per well were plated in 6-well plates and treated with CPDP for 30 minutes prior to stimulation with ODN 1668 for 90 minutes. Cells were lysed in 600 p L of buffer containing 20 mM HEPES (pH 7.4), 150 mM NaCl, 10 mM NaF, 2 mM Na3VO4, 1 mM EDTA, 1 mM EGTA, 0.5% Triton X-100, 0.1 mM DTT, and protease inhibitor cocktail (Roche™). Cell extracts were incubated overnight with 1 μg of anti-mouse MyD88 antibody (AF3109) (R&D Systems™, followed by a 4-hour incubation with 20 μL protein G Sepharose beads (ThermoFisherm Scientific). The beads were then washed 3 times with 500 μL of lysis buffer and boiled in 60 μL of Laemmli sample buffer (Bio-Rad™). Cell extracts were electrophoresed on 10% acrylamide gel by SDS-PAGE and transferred to PVDF membrane (Bio-Rad™). Rabbit anti-MyD88 IgG was purchased from Cell Signaling™. Mouse anti-IRAK4 IgG was obtained from Abcam™. Alkaline phosphatase-conjugated secondary antibodies against mouse and rabbit IgG were purchased from Cell Signaling™. The stabilized substrate for alkaline phosphatase was from Promega™.
TLR stimulation causes formation of myDDosome, a signaling complex composed through interactions of IRAK and MyD88 death domains. To test if peptides inhibit myDDosome formation, MyD88 was immunoprecipitated from lysates of ODN-stimulated BMDM and the precipitates analyzed for IRAK4 presence. BMDM were lysed and lysates immunoprecipitated with anti-MyD88 Ab and immune complexes assessed with anti-IRAK4 Ab 3 hours after cell treatment with ODN 1668.

TLR9 signaling [1] = assay: ODN 1668-induced cytokine secretion in BMDM supernatants (ELISA); assay type: cell-based, mouse; settings: 5 hour supernatants, ODN 1668 1 μM
Description: Mouse TNFα and IL-12-p40 concentrations were measured in supernatants using ELISA kits from Biolegend™, Inc.
BMDMs were incubated in the presence of a decoy peptide for 30 minutes prior to stimulation with ODN 1668 (1 μM). The statistical significance of changes in cytokine levels was determined by the one-way ANOVA test; *p<0.01.

TLR2/1 signaling = assay: Plasma cytokines after i.p. Pam3C in mice; assay type: in vivo, C57BL/6J mice; settings: peptide 200 nmol/mouse i.p.; Pam3C 67 nmol/mouse
Description: Systemic cytokine levels were measured in plasma samples obtained 1, 3, and 5 hours after intraperitoneal (i.p.) administration of 7.86 nmol (50 μg) of ODN 1668 or 67 nmol of Pam3C per mouse, using ELISA kits from Biolegend™ Inc. CPDP were dissolved in PBS and administered i.p. at the dose of 200 nmol per mouse 1 hour before administration of a TLR agonist. For survival experiments, mice were sensitized to TLR9 agonists by i.p. injection of 20 mg of D-Gal 30 minutes before administration of peptides or PBS. ODN 1668 was used at the doses of 3.93 or 7.86 nmol/mouse (25 or 50 μg/mouse) 1.5 hours after D-Gal. Animal survival was monitored for 50 hours. All agents were administered i.p. in 500 μL volume of PBS. […]
To test the in vivo efficacy and specificity of 9R34-ΔN, C57BL/6J mice were mock-treated or treated i.p. with a single dose of inhibitory or control peptide (200 nmol/mouse) and challenged with TLR9 agonist ODN 1668 (7.86 nmol/mouse) or TLR2/1 agonist Pam3C (67 nmol/mouse) 1 hour later. Plasma concentrations of TNFα and IL-12-p40 were measured 1, 3, and 5 hours after the challenge. […]
Plasma TNFα and IL-12-p40 levels following intraperitioneal administration of ODN 1668 to C57Bl/6J mice in peptide-pretreated and control mice are shown in FIG. 14A and FIG. 14B. […] The statistical significance of changes in cytokine concentrations was determined by a two-way ANOVA test; *p<0.001.

TLR9-induced lethality = assay: Survival of D-Gal pretreated mice after ODN 1668; assay type: in vivo, C57Bl/6J mice
Description: (§3) Systemic cytokine levels were measured in plasma samples obtained 1, 3, and 5 hours after intraperitoneal (i.p.) administration of 7.86 nmol (50 μg) of ODN 1668 or 67 nmol of Pam3C per mouse, using ELISA kits from Biolegend™ Inc. CPDP were dissolved in PBS and administered i.p. at the dose of 200 nmol per mouse 1 hour before administration of a TLR agonist. For survival experiments, mice were sensitized to TLR9 agonists by i.p. injection of 20 mg of D-Gal 30 minutes before administration of peptides or PBS. ODN 1668 was used at the doses of 3.93 or 7.86 nmol/mouse (25 or 50 μg/mouse) 1.5 hours after D-Gal. Animal survival was monitored for 50 hours. All agents were administered i.p. in 500 μL volume of PBS. Animals had free access to food and water during the observation period. All animal experiments were conducted in accordance with the national guidelines for the care and use of laboratory animals under a protocol that was approved by the UMB IACUC.
With the exception for LPS, administration of a purified TLR agonist is not lethal to mice. Mice, however, can be sensitized to TLR agonists by pretreatment with D-galactosamine (D-Gal). Survival of C57Bl/6J mice pretreated with D-galactosamine and challenged with different doses of ODN 1668 was tested. Mice were first administered with D-Gal intraperitoneally at the dose of 20 mg/mouse. Thirty minutes later mice were mock-treated with PBS or treated with a CPDP at the dose 200 nmol/mouse. ODN 1668 was administered 1 hour after peptide treatment at the dose of 3.93 or 7.86 nmol/mouse.

TLR9 signaling [2] = assay: Plasma cytokines after i.p. ODN 1668 in mice; assay type: in vivo, C57BL/6J mice
Description: as §3
To test the in vivo efficacy and specificity of 9R34-ΔN, C57BL/6J mice were mock-treated or treated i.p. with a single dose of inhibitory or control peptide (200 nmol/mouse) and challenged with TLR9 agonist ODN 1668 (7.86 nmol/mouse) or TLR2/1 agonist Pam3C (67 nmol/mouse) 1 hour later. Plasma concentrations of TNFα and IL-12-p40 were measured 1, 3, and 5 hours after the challenge. Both TLR agonists increased concentrations of TNFα and IL-12-p40 in 1 hour samples from below the limit of detection to about 1.2 and about 6 ng/mL in the case of ODN 1668, and to 0.12 ng/mL and 1 ng/mL after treatment with Pam3C.
Plasma TNFα and IL-12-p40 levels following intraperitioneal administration of ODN 1668 to C57Bl/6J mice in peptide-pretreated and control mice are shown in FIG. 14A and FIG. 14B. Data shown in these figures represent the means±SEM obtained in at least three independent experiments. The statistical significance of changes in cytokine concentrations was determined by a two-way ANOVA test; *p<0.001.

[3] = higher ODN1668 dose 50 μg/mouse, peptide 200 nmol/mouse i.p.

Sequence | signaling induced by TLR1/2 agonist (TNFα mRNA) (TLR1/2 signaling) | signaling induced by TLR7 agonist (TNFα mRNA) (TLR7 signaling) | ODN 1668-induced myDDosome formation (myDDosome) | secretion of IL-12-p40 (TLR9 signaling [1]; peptide 20 μM) | production/secretion of TNFα (TLR9 signaling [1]; peptide 40 μM) | secretion of IL-12-p40 (TLR9 signaling [1]; peptide 40 μM) | Pam3C-induced plasma cytokine levels (TNFα, IL-12-p40) (TLR2/1 signaling) | protection against ODN-induced lethality (overall) (TLR9-induced lethality; D-Gal pretreated mice) | protection of D-Gal pretreated mice (survival) (TLR9-induced lethality; ODN 1668 lower dose 3.93 nmol/mouse, peptide 200 nmol/mouse i.p.) | mice rescued (TLR9-induced lethality; [3]) | protection of D-Gal pretreated mice (survival) (TLR9-induced lethality; [3]) | decrease of plasma IL-12-p40 peak (TLR9 signaling [2]; 3-hour samples, peptide 200 nmol/mouse i.p., ODN 1668 7.86 nmol/mouse) | 1-hour plasma TNFα peak (TLR9 signaling [2]; peptide 200 nmol/mouse i.p. 1 hour before ODN 1668 7.86 nmol/mouse) | ODN 1668-induced plasma cytokine levels (TNFα, IL-12-p40) (TLR9 signaling [2]; peptide 200 nmol/mouse i.p., ODN 1668 7.86 nmol/mouse)
RSFWAQLGMALTRD (Synthetic peptide 9R11) | did not inhibit | did not inhibit | prevented ODN 1668-induced myDDosome formation | also effective | decreased the production of TNFα | reduced secretion |  |  |  |  |  |  |  | 
ALRLCLEERD [Peptide 9R34-ΔN] |  |  |  |  |  |  | did not affect cytokine levels | protects mice from TLR9-induced lethality | full protection | more than 50% | less protective | approximately 25 fold | eliminated | selectively inhibited only the ODN 1668-induced cytokines
